Source: US9187471B2, “Pyrido [4,3-b] indole and pyrido [3,4-b] indole derivatives and methods of use” (Medivation Technologies, Inc., priority 2010, dated 2015)

Experiments:
[1] = molecular target: T1, human recombinant histamine H1 receptor (Homo sapiens, UniProt P35367); test: Histamine H1 radioligand binding ([3H]Pyrilamine); settings: read-out: Histamine H1 Binding (1 μM), percent inhibition of specific binding; compound at 1 μM; 1.2 nM [3H]Pyrilamine
T1 construct: expressed in transfected cells; host or cells: CHO-K1
In short: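 Results expressed as percent inhibition of specific [3H]pyrilamine binding, counted on filters after washing. Receptor source: CHO-K1 cells expressing recombinant human H1, in modified Tris-HCl buffer (50 mM, pH 7.4; 2 mM MgCl2, 100 mM NaCl, 250 mM sucrose). 1 μM pyrilamine defined non-specific binding.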

[2] = molecular target: T2, human recombinant adrenergic α2C receptor (Homo sapiens, UniProt P18825); test: Adrenergic α2C radioligand binding ([3H]MK-912); settings: read-out: Adrenergic (0.1 μM) a2C, percent inhibition of specific binding; compound at 0.1 μM; 1 nM [3H]MK-912
T2 construct: expressed in transfected cells; host or cells: insect Sf9 cells
T2 sequence (P18825 1-462): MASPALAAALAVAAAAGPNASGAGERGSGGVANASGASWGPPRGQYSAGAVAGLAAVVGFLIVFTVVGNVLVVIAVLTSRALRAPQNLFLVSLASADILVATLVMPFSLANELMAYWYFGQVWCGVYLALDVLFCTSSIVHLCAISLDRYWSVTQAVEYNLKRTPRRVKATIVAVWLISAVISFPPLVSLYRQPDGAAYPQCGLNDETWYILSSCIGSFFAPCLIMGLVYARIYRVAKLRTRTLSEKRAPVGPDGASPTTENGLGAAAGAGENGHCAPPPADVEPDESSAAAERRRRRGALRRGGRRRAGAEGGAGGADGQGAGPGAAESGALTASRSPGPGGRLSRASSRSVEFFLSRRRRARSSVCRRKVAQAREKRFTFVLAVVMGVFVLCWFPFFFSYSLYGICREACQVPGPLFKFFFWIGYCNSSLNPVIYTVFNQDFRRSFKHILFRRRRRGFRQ
In short: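 Membranes from Sf9 cells expressing the human receptor, in 50 mM Tris-HCl pH 7.4 with 12.5 mM MgCl2 and 2 mM EDTA, incubated with compound and 1 nM [3H]MK-912 for 60 min at 25 °C. Non-specific binding defined with 10 μM WB-4101. Filter-bound radioactivity counted; percent inhibition of specific binding reported.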

[3] = molecular target: T3, human recombinant serotonin (5-Hydroxytryptamine) 5-HT2C receptor (Homo sapiens, UniProt P28335); test: Serotonin 5-HT2C radioligand binding ([3H]Mesulergine); settings: compound at 0.1 μM; read-out: Inhibition of ligand binding, Serotonin 5-HT2C (percent inhibition of specific binding)
T3 construct: expressed in transfected cells; host or cells: CHO-K1
T3 sequence (P28335 33-458): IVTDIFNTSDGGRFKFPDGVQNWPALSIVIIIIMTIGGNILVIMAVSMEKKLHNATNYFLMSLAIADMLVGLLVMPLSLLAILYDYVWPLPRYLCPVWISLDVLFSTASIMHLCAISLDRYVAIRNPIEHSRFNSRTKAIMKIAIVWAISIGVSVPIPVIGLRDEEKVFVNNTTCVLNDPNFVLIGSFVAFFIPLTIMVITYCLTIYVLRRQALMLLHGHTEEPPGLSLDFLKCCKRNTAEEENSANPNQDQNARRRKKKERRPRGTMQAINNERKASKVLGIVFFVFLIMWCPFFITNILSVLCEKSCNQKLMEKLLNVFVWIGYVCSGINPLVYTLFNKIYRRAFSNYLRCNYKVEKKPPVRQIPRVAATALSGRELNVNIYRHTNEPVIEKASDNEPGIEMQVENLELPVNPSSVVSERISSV
Procedure: Compounds of the invention were incubated with 1 nM [^3H]Mesulergine for 60 min at 25° C. Non-specific binding was estimated in the presence of 1 μM Mianserin. Receptor proteins were filtered and washed, the filters were then counted to determine [^3H]Mesulergine specifically bound.

[4] = molecular target: T4, human recombinant serotonin (5-Hydroxytryptamine) 5-HT5A receptor (Homo sapiens, UniProt P47898); test: Serotonin 5-HT5A radioligand binding ([3H]LSD); settings: compound at 0.1 μM; read-out: Inhibition of ligand binding, Serotonin 5-HT5A (percent inhibition of specific binding)
T4 construct: expressed in transfected cells; host or cells: CHO-K1
Procedure: Compounds of the invention were incubated with 1.7 nM [^3H]Lysergic acid diethylamide (LSD) for 60 min at 37° C. […] Receptor proteins were filtered and washed, the filters were counted to determine [^3H]LSD specifically bound.

[5] = molecular target: T5, human recombinant serotonin (5-Hydroxytryptamine) 5-HT6 receptor (Homo sapiens, UniProt P50406); test: Serotonin 5-HT6 radioligand binding ([3H]LSD); settings: compound at 0.1 μM; read-out: Inhibition of ligand binding, Serotonin 5-HT6 (percent inhibition of specific binding)
T5 construct: expressed in transfected cells; host or cells: HeLa
From the text: Receptor proteins were filtered and washed, the filters were then counted to determine [3H]LSD specifically bound.

[6] = molecular target: T6, human recombinant serotonin (5-Hydroxytryptamine) 5-HT7 receptor (Homo sapiens, UniProt P34969); test: Serotonin 5-HT7 radioligand binding ([3H]LSD); settings: compound at 0.1 μM; read-out: Inhibition of ligand binding, Serotonin 5-HT7 (percent inhibition of specific binding)
T6 construct: expressed in transfected cells; host or cells: CHO
Procedure: Lysergic acid diethylamide (LSD) for 120 min. at 25° C. […] Receptor proteins were filtered and washed, the filters were then counted to determine [^3H]LSD specifically bound.

T6 sequence (P34969 whole entry): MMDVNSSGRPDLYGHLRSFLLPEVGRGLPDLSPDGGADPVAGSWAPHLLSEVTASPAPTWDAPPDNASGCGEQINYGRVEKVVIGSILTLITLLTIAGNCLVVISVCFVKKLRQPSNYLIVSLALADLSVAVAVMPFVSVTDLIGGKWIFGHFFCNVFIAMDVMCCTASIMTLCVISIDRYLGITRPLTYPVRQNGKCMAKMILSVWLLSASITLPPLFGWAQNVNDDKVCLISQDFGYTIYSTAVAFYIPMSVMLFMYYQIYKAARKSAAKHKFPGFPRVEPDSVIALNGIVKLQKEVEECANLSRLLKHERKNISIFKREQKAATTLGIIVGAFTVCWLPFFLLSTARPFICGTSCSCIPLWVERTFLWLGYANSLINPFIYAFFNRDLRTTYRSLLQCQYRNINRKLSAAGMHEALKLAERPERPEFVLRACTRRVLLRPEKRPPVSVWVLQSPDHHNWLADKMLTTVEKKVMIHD
T4 sequence (P47898 whole entry): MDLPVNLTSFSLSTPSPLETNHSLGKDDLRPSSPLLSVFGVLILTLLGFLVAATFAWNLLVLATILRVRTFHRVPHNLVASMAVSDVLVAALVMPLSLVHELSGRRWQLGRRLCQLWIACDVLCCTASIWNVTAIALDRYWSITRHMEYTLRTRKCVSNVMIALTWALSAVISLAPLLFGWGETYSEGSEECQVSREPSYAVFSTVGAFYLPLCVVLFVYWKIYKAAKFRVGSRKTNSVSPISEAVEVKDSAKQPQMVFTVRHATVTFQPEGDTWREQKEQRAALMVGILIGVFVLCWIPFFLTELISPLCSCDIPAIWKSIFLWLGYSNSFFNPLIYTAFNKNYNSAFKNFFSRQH
T1 sequence (P35367 whole entry): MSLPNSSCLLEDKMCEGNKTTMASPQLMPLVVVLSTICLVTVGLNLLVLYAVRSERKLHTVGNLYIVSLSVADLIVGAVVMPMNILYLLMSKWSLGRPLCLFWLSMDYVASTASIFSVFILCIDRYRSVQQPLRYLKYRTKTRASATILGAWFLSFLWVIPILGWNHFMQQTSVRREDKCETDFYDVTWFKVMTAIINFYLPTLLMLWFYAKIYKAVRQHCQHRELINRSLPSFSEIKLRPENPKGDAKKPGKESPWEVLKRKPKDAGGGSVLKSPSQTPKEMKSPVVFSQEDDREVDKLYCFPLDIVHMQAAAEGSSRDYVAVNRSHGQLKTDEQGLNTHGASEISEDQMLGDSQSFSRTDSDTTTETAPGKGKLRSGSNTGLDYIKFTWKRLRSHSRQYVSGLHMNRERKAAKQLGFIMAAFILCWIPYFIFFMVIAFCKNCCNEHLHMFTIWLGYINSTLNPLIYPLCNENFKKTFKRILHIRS
T5 sequence (P50406 whole entry): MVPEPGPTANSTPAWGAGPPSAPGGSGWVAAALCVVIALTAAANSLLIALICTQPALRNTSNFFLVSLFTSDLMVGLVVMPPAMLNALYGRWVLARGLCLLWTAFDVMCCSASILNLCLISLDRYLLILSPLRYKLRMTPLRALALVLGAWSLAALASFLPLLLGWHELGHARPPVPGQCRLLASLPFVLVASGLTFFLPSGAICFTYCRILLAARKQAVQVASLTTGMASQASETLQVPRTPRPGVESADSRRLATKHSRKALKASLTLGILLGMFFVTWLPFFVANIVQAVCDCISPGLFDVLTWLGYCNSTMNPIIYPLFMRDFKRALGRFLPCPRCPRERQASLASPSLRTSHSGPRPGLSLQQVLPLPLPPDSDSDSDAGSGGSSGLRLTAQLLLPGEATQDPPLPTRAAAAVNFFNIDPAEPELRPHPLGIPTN

Structure (SMILES) | inhibition at 1 µM [1] | inhibition at 0.1 µM [2] | inhibition at 0.1 µM [3] | inhibition at 0.1 µM [4] | inhibition at 0.1 µM [5] | inhibition at 0.1 µM [6]
Cc1ccc2c(c1)c1c(n2-c2cscc2-c2cnn(C)c2)CCN(C)C1 [Compound 30] | 23% | 10% | 84% | 77% | 33% | 94%
Cc1ccc2c(c1)c1c(n2-c2ccc(-c3ccc4c(ccn4C)c3)cn2)CCN(C)C1 [Compound No. 136, 2,8-dimethyl-5-(5-(1-methyl-1H-indol-5-yl)pyridin-2-yl)-2,3,4,5-tetrahydro-1H-pyrido[4,3-b]indole] | 5% | 24% | 101% | 50% | 10% | 26%
CC(=O)Nc1ccc(-c2ccccc2-n2c3c(c4cc(C)ccc42)CN(C)CC3)cn1 [Compound No. 83, N-(5-(2-(2,8-dimethyl-3,4-dihydro-1H-pyrido[4,3-b]indol-5(2H)-yl)phenyl)pyridin-2-yl)acetamide] | 22% | -5% | 15% | 11% | 3% | 15%
Cc1ccc2c(c1)c1c(n2-c2cscc2-c2sccc2C)CCN(C)C1 [Compound 39] | 58% | 50% | 93% | 83% | 65% | 97%
Cc1ccc2c(c1)c1c(n2-c2cccc(-c3ccc4[nH]cnc4c3)c2)CCN(C)C1 [Compound 54, 5-(3-(1H-benzo[d]imidazol-5-yl)phenyl)-2,8-dimethyl-2,3,4,5-tetrahydro-1H-pyrido[4,3-b]indole] | 40% | 12% | 21% | 33% | 25% | 26%
Cc1ccc2c(c1)c1c(n2-c2cccc(-c3ccc(S(N)(=O)=O)cc3)c2)CCN(C)C1 [Compound No. 158, 3′-(2,8-dimethyl-3,4-dihydro-1H-pyrido[4,3-b]indol-5(2H)-yl)biphenyl-4-sulfonamide] | 1% | 0% | 47% | 62% | 14% | 26%
Cc1ccc2c(c1)c1c(n2-c2ccc(-c3cncc4ccccc34)cn2)CCN(C)C1 [Compound No. 135, 5-(5-(isoquinolin-4-yl)pyridin-2-yl)-2,8-dimethyl-2,3,4,5-tetrahydro-1H-pyrido[4,3-b]indole] | 10% | 13% | 88% | 77% | 6% | 22%
CNC(=O)c1ccc(-c2cccc(-n3c4c(c5cc(C)ccc53)CN(C)CC4)c2)cn1 [Compound No. 75, 5-(3-(2,8-dimethyl-3,4-dihydro-1H-pyrido[4,3-b]indol-5(2H)-yl)phenyl)-N-methylpicolinamide] | 19% | -3% | 25% | 29% | 4% | 21%
CNC(=O)c1cccc(-c2ccc(-n3c4c(c5cc(C)ccc53)CN(C)CC4)nc2)c1 [Compound No. 143, 3-(6-(2,8-dimethyl-3,4-dihydro-1H-pyrido[4,3-b]indol-5(2H)-yl)pyridin-3-yl)-N-methylbenzamide] | 8% | 8% | 44% | 17% | -8% | 11%
